What was measured:
[1] = tested on: A427 human NSCLC xenografts; details: single treatment, 14 days post injection, equivalent cisplatin levels
KB tumors = assay type: in vivo; details: KB tumored nude mice, dosed at 8 mg/kg cisplatin
[2] = mouse KB tumor model

## N.N.[Cl][Pt][Cl] [Cisplatin, (SP-4-2)-diamminedichloridoplatinum (II)]
[1]
  tumor growth inhibition: 30%
KB tumors
  peak tumor DNA/Pt adduct: less than 10 pg of Pt/μg of DNA
[2]
  maximum tolerated dose (MTD): less than 10 mg/kg

— US10383823B2 (Mallinckrodt LLC, priority 2013, dated 2019)
